Experiments:
[1] = target: T1, human V1a receptor (Homo sapiens, UniProt P37288); test: Cellular in vitro assay for vasopressin receptor activity, V1a cell line (aequorin luminescence); assay type: cell-based; conditions: for IC50: CHO cell line transfected with human V1a receptor, agonist [Arg8]-vasopressin at EC50 concentration, read-out: IC50hV1a; for ratio IC50 hV2/hV1a: ratio of the IC50 on human V2 to the IC50 on human V1a
T1 construct: expressed in transfected cells; host or cells: CHO K1 (ATCC), also stably transfected with a modified aequorin
T1 sequence (P37288 whole entry): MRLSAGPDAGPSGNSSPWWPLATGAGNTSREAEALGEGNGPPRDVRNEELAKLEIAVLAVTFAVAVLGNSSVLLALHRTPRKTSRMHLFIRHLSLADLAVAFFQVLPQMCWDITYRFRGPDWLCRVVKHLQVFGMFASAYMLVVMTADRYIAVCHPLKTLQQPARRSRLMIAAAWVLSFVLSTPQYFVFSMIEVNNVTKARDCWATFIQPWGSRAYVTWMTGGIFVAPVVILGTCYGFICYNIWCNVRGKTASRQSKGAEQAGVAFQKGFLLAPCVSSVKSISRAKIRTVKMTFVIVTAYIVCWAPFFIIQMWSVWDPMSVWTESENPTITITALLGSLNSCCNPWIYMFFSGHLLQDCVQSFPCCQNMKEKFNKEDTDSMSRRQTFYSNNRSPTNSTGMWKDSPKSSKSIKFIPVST
Summary of the method: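 CHO K1 cells stably expressing human V1a receptor with aequorin photoprotein, loaded overnight with coelenterazine. Compounds preincubated 10 min at various concentrations, then challenged with [Arg^8]-vasopressin at EC50 concentration. Calcium-driven luminescence read immediately; IC50 values derived.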

[2] = target: T2, human V2 receptor (Homo sapiens, UniProt P30518); test: Cellular in vitro assay for vasopressin receptor activity, V2 cell line (CRE-luciferase); assay type: cell-based; conditions: CHO cell line transfected with human V2 receptor; agonist [Arg8]-vasopressin at EC50 concentration, 3 hours; read-out: IC50hV2
T2 construct: expressed in transfected cells; host or cells: CHO K1 (ATCC) line expressing firefly luciferase under a CRE-responsive promoter
T2 sequence (P30518 whole entry): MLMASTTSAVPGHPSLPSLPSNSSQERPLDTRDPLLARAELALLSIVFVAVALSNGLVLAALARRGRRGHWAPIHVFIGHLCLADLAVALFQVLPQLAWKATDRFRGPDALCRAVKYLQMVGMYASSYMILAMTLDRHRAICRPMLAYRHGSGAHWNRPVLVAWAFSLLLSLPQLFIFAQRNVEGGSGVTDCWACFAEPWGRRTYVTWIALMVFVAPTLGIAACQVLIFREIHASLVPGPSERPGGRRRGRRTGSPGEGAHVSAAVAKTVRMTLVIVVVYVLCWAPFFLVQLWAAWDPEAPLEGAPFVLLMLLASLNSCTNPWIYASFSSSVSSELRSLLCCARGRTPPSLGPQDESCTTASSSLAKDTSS

IC50 [1] [nM] | ratio IC50 hV2/hV1a [1] | IC50 [2] [nM] | SMILES
30 | 1.2 | 35 | CC(C)c1ccccc1-n1nc(Cn2nc(-c3ccc(Cl)cc3)n(C[C@H](O)C(F)(F)F)c2=O)nc1C(C)F (mixture of isomers) [Example 47, 5-(4-Chlorophenyl)-2-({5-[1-fluoroethyl]-1-[2-(propan-2-yl)phenyl]-1H-1,2,4-triazol-3-yl}methyl)-4-[(2S)-3,3,3-trifluoro-2-hydroxypropyl]-2,4-dihydro-3H-1,2,4-triazol-3-one]
0.85 | 0.5 | 0.45 | CSc1ccccc1-n1nc(Cn2nc(-c3ccc(Cl)cc3)n(C[C@H](O)C(F)(F)F)c2=O)nc1C(C)F (mixture of isomers) [Example 49, 5-(4-Chlorophenyl)-2-({5-[1-fluoroethyl]-1-[2-(methylsulfanyl)phenyl]-1H-1,2,4-triazol-3-yl}methyl)-4-[(2S)-3,3,3-trifluoro-2-hydroxypropyl]-2,4-dihydro-3H-1,2,4-triazol-3-one]
1.73 | 6.7 | 11.6 | CC(F)(F)c1nc(Cn2nc(-c3ccc(Cl)cc3)n(C[C@H](O)C(F)(F)F)c2=O)nn1-c1ccccc1C(F)(F)F [Example 60, 5-(4-Chlorophenyl)-2-({5-(1,1-difluoroethyl)-1-[2-(trifluoromethyl)phenyl]-1H-1,2,4-triazol-3-yl}methyl)-4-[(2S)-3,3,3-trifluoro-2-hydroxypropyl]-2,4-dihydro-3H-1,2,4-triazol-3-one]
0.93 | 12.2 | 11.2 | CC(F)(F)c1nc(Cn2nc(-c3ccc(Cl)cc3)n(C[C@H](O)C(F)(F)F)c2=O)nn1-c1cnccc1Cl [Example 54, 5-(4-Chlorophenyl)-2-{[1-(4-chloropyridin-3-yl)-5-(1,1-difluoroethyl)-1H-1,2,4-triazol-3-yl]methyl}-4-[(2S)-3,3,3-trifluoro-2-hydroxypropyl]-2,4-dihydro-3H-1,2,4-triazol-3-one]
0.36 | 0.5 | 0.17 | Cc1ccccc1-n1nc(Cn2nc(-c3ccc(Cl)cc3)n(C[C@H](O)C(F)(F)F)c2=O)nc1C(C)F (single isomer, unassigned) [Example 35]
3.9 | 3.5 | 13.5 | CC(F)c1nc(Cn2nc(-c3ccc(Cl)cc3)n(C[C@H](O)C(F)(F)F)c2=O)nn1-c1ccccc1C(F)(F)F (mixture of isomers) [Example 22, 5-(4-Chlorophenyl)-2-({5-[1-fluoroethyl]-1-[2-(trifluoromethyl)phenyl]-1H-1,2,4-triazol-3-yl}methyl)-4-[(2S)-3,3,3-trifluoro-2-hydroxypropyl]-2,4-dihydro-3H-1,2,4-triazol-3-one]
1.85 | 0.4 | 0.76 | CCc1ccccc1-n1nc(Cn2nc(-c3ccc(Cl)cc3)n(C[C@H](O)C(F)(F)F)c2=O)nc1C(C)F (mixture of isomers) [Example 28, 5-(4-Chlorophenyl)-2-({1-(2-ethylphenyl)-5-[1-fluoroethyl]-1H-1,2,4-triazol-3-yl}methyl)-4-[(2S)-3,3,3-trifluoro-2-hydroxypropyl]-2,4-dihydro-3H-1,2,4-triazol-3-one]
60 | 0.1 | 3.85 | CC(F)c1nc(Cn2nc(-c3ccc(Cl)cc3)n(C[C@H](O)C(F)(F)F)c2=O)nn1-c1cccc(Cl)c1 (single isomer, unassigned) [Example 18]
60 | 0.1 | 5.23 | CC(F)(F)c1nc(Cn2nc(-c3ccc(Cl)cc3)n(C[C@H](O)C(F)(F)F)c2=O)nn1-c1cccc(Cl)c1 [Example 55, 5-(4-Chlorophenyl)-2-{[1-(3-chlorophenyl)-5-(1,1-difluoroethyl)-1H-1,2,4-triazol-3-yl]methyl}-4-[(2S)-3,3,3-trifluoro-2-hydroxypropyl]-2,4-dihydro-3H-1,2,4-triazol-3-one]
1.13 | 11.1 | 12.5 | CC(F)c1nc(Cn2nc(-c3ccc(Cl)cc3)n(C[C@H](O)C(F)(F)F)c2=O)nn1-c1cnccc1C(F)(F)F (stereo partly drawn) [Example 7, 5-(4-Chlorophenyl)-2-({5-[1-fluoroethyl]-1-[4-(trifluoromethyl)pyridin-3-yl]-1H-1,2,4-triazol-3-yl}methyl)-4-[(2S)-3,3,3-trifluoro-2-hydroxypropyl]-2,4-dihydro-3H-1,2,4-triazol-3-one]
3.75 | 8.8 | 33 | CC(F)c1nc(Cn2nc(-c3ccc(Cl)cc3)n(C[C@H](O)C(F)(F)F)c2=O)nn1-c1ccccc1C(F)(F)F (single isomer, unassigned) [Example 23]
41 | 0.3 | 11.9 | CCc1cccc(C)c1-n1nc(Cn2nc(-c3ccc(Cl)cc3)n(C[C@H](O)C(F)(F)F)c2=O)nc1C(C)(F)F [Example 73, 5-(4-Chlorophenyl)-2-{[5-(1,1-difluoroethyl)-1-(2-ethyl-6-methylphenyl)-1H-1,2,4-triazol-3-yl]methyl}-4-[(2S)-3,3,3-trifluoro-2-hydroxypropyl]-2,4-dihydro-3H-1,2,4-triazol-3-one]
1.75 | 5.6 | 9.8 | CC(F)c1nc(Cn2nc(-c3ccc(Cl)cc3)n(C[C@H](O)C(F)(F)F)c2=O)nn1-c1ccccc1OC(F)(F)F (single isomer, unassigned) [Example 27]

— patent publication US10525041B2, “Fluoroalkyl-substituted aryltriazole derivatives and uses thereof” (BAYER PHARMA AKTIENGESELLSCHAFT, priority 2016, dated 2020)
